Measured values published in patent US4849207A, “Porphyrin derivatives” (Nihon Medi-Physics Co., Ltd., priority 1985, dated 1989).

Key:
[1] = tested on: cancer cells of the pancreas; assay: Laser irradiation to an extracted organ (excited fluorescent spectrum); format: in vivo, golden hamsters; settings: golden hamster, 5 mg i.v., after 24 hours
Protocol: Laser irradiation to an extracted organ (excited fluorescent spectrum):
To each of golden hamsters (five animals being grouped) transplaned with nitrosoamine-induced cancer cells of the pancreas, DTPA-10EG PPB-Me (5 mg) diluted with 0.1M citrate buffer (1 ml) was administered intravenously 14 to 21 days after the transplantation, and cancer cells and other organs were extracted. To each of the organs as extracted, N2 -pulsed laser (N2 337 nm, 2 ns 400-1000 nm) was irradiated, and excited fluorescent spectrum was measured after 24 hours. Taking the peak wavelength of NADH at 470 nm as the standard (i.e. 1), the wavelength at 600 to 900 nm was calculated. The results are shown in Table 1, from which it is understood that a porphyrin-related substance has a remarkably selective affinity to cancer cells.

[2] = tested on: inflammation (croton oil induced); assay: Distribution in inflammation-induced rats, inflammation to tissue; format: in vivo, SD rats; settings: SD rat, 72 hour post-injection; mean and s.d. for 3 animals
Protocol: SD rats of about 200 grams in bodyweight received croton oil (0.1 ml) at the right hind leg subcutaneously to induce inflammation. […] The radioactivity level ratio between the inflamation and each tissue was determined.

tumor = settings: hamster, in vivo, 4320 min
Protocol: (§1) Scintigraphy was obtained 72 and 96 hours after the administration by the use of a gamma-camera equipped with a medium energy high resolution type collimator.

[3] = tested on: inflammation (turpentine oil induced); settings: hamster, in vivo, 4320 min
Protocol: as §1

Question: How did the “excited fluorescence at 600 to 900 nm relative to NADH peak at 470 nm (=1): Cancer” value [1] turn out when “2-[1-(In-Diethylenetriamine-tetraacetic acid-acetyloxyethane)oxyethyl]-4-[1-(2-hydroxyethyl)oxyethyl] deuteroporphyrin dimethyl ester [In--DTPA--EG DP--Me]” was run?
Answer: Its value is 0.83.

Question: What about the “excited fluorescence at 600 to 900 nm relative to NADH peak at 470 nm (=1): Kidney” value [1] of the same molecule?
Answer: Its value is 0.15.

Question: And the “excited fluorescence at 600 to 900 nm relative to NADH peak at 470 nm (=1): Liver” value [1]?
Answer: Its value is 0.36.

Question: And the “excited fluorescence at 600 to 900 nm relative to NADH peak at 470 nm (=1): Lung” value [1]?
Answer: Its value is 0.09.

Question: And the “excited fluorescence at 600 to 900 nm relative to NADH peak at 470 nm (=1): Serum” value [1]?
Answer: Its value is 0.71.

Question: What does the source list for “2-[1-(In-Diethylenetriamine-tetraacetic acid-acetyloxyethane)oxyethyl]-4-[1-(2-hydroxyethyl)oxyethyl] Ga-deuteroporphyrin [In--monoDTPA--EG Ga--DP]”?
Answer: excited fluorescence at 600 to 900 nm relative to NADH peak at 470 nm (=1): Cancer [1]: 0.50; excited fluorescence at 600 to 900 nm relative to NADH peak at 470 nm (=1): Kidney [1]: 0.05; excited fluorescence at 600 to 900 nm relative to NADH peak at 470 nm (=1): Liver [1]: 0.03; excited fluorescence at 600 to 900 nm relative to NADH peak at 470 nm (=1): Lung [1]: 0.14; excited fluorescence at 600 to 900 nm relative to NADH peak at 470 nm (=1): Serum [1]: 0.02

Question: For “2,4-Bis[1-(In-diethylenetriamine-tetraacetic acid-acetyloxyethane)oxyethyl] In-deuteroporphyrin [In--bisDTPA--EG In--DP]”, which “excited fluorescence at 600 to 900 nm relative to NADH peak at 470 nm (=1): Cancer” value [1] is on record?
Answer: Its value is 0.00.

Question: And the “excited fluorescence at 600 to 900 nm relative to NADH peak at 470 nm (=1): Kidney” value [1]?
Answer: The value was 0.05.

Question: And the “excited fluorescence at 600 to 900 nm relative to NADH peak at 470 nm (=1): Liver” value [1]?
Answer: The value was 0.25.

Question: And the “excited fluorescence at 600 to 900 nm relative to NADH peak at 470 nm (=1): Lung” value [1]?
Answer: Its value is 0.05.

Question: What about the “excited fluorescence at 600 to 900 nm relative to NADH peak at 470 nm (=1): Serum” value [1] of the same molecule?
Answer: Its value is 0.05.

Question: For `C=Cc1c(C)c2cc3nc(c4c5[nH]c(cc6nc(cc1[nH]2)C(C)=C6CC)c(C)c5C(=O)C4C(=O)OCCOC(=O)CN(CCN(CCN(CC(=O)O)CC(=O)O)CC(=O)O)CC(=O)O)C(CCC(=O)O)C3C` (stereo not shown) [DTPA--10EG PPB, Ethylene glycol mono-diethylenetriamine-tetraacetic acid-acetate mono-10b-pheophorbate], which “excited fluorescence at 600 to 900 nm relative to NADH peak at 470 nm (=1): Cancer” value [1] is on record?
Answer: The value was 1.20.

Question: And the “excited fluorescence at 600 to 900 nm relative to NADH peak at 470 nm (=1): Kidney” value [1]?
Answer: Its value is 0.43.

Question: What about the “excited fluorescence at 600 to 900 nm relative to NADH peak at 470 nm (=1): Liver” value [1] of the same molecule?
Answer: Its value is 0.77.

Question: And the “excited fluorescence at 600 to 900 nm relative to NADH peak at 470 nm (=1): Lung” value [1]?
Answer: The value was 0.45.

Question: And the “excited fluorescence at 600 to 900 nm relative to NADH peak at 470 nm (=1): Serum” value [1]?
Answer: Its value is 0.52.

Question: Which results are given for “2-[1-(In-Diethylenetriamine-tetraacetic acid-acetyloxyethane)oxyethyl]-4-[1-(2-hydroxyethyl)oxyethyl] In-deuteroporphyrin [In--monoDTPA--EG In--DP]”?
Answer: excited fluorescence at 600 to 900 nm relative to NADH peak at 470 nm (=1): Cancer [1]: 0.30; excited fluorescence at 600 to 900 nm relative to NADH peak at 470 nm (=1): Kidney [1]: 0.00; excited fluorescence at 600 to 900 nm relative to NADH peak at 470 nm (=1): Liver [1]: 0.07; excited fluorescence at 600 to 900 nm relative to NADH peak at 470 nm (=1): Lung [1]: 0.09; excited fluorescence at 600 to 900 nm relative to NADH peak at 470 nm (=1): Serum [1]: 0.24

Question: For “2,4-Bis[1-(In-diethylenetriamine-tetraacetic acid-acetyloxyethane)oxyethyl] Ga-deuteroporphyrin [In--bisDTPA--EG Ga--DP]”, which “excited fluorescence at 600 to 900 nm relative to NADH peak at 470 nm (=1): Cancer” value [1] is on record?
Answer: Its value is 0.40.

Question: And the “excited fluorescence at 600 to 900 nm relative to NADH peak at 470 nm (=1): Kidney” value [1]?
Answer: Its value is 0.10.

Question: And the “excited fluorescence at 600 to 900 nm relative to NADH peak at 470 nm (=1): Liver” value [1]?
Answer: The value was 0.18.

Question: What about the “excited fluorescence at 600 to 900 nm relative to NADH peak at 470 nm (=1): Serum” value [1] of the same molecule?
Answer: The value was 0.03.

Question: `C=Cc1c(C)c2cc3nc(c4c5[nH]c(cc6nc(cc1[nH]2)C(C)=C6CC)c(C)c5C(=O)C4)C(CCC(=O)OCCOC(=O)CN(CCN(CCN(CC(=O)O)CC(=O)O)CC(=O)O)CC(=O)O)C3C` (stereo not shown) [DTPA--7EG pyroPPB, Ethylene glycol mono-diethylenetriaminetetraacetic acid-acetate mono-7c-pyropheophorbate] was tested. Which “excited fluorescence at 600 to 900 nm relative to NADH peak at 470 nm (=1): Cancer” value [1] did it give?
Answer: The value was 2.20.

Question: What about the “excited fluorescence at 600 to 900 nm relative to NADH peak at 470 nm (=1): Kidney” value [1] of the same molecule?
Answer: The value was 0.25.

Question: And the “excited fluorescence at 600 to 900 nm relative to NADH peak at 470 nm (=1): Liver” value [1]?
Answer: Its value is 0.87.

Question: And the “excited fluorescence at 600 to 900 nm relative to NADH peak at 470 nm (=1): Lung” value [1]?
Answer: The value was 1.23.

Question: What about the “excited fluorescence at 600 to 900 nm relative to NADH peak at 470 nm (=1): Serum” value [1] of the same molecule?
Answer: Its value is 0.39.

Question: Which “excited fluorescence at 600 to 900 nm relative to NADH peak at 470 nm (=1): Cancer” value [1] does the source give for `C=Cc1c(C)c2cc3nc(c4c5[nH]c(cc6nc(cc1[nH]2)C(C)=C6CC)c(C)c5C(=O)C4C(=O)OC)C(CCC(=O)OCCOC(=O)CN(CCN(CCN(CC(=O)O)CC(=O)O)CC(=O)O)CC(=O)O)C3C` (stereo not shown) [DTPA--7EG PPB, Ethylene glycol mono-diethylenetriaminetetraacetic acid-acetate mono-7c-pheophorbate] here?
Answer: Its value is 0.53.

Question: What about the “excited fluorescence at 600 to 900 nm relative to NADH peak at 470 nm (=1): Kidney” value [1] of the same molecule?
Answer: The value was 0.32.

Question: And the “excited fluorescence at 600 to 900 nm relative to NADH peak at 470 nm (=1): Liver” value [1]?
Answer: The value was 0.33.

Question: And the “excited fluorescence at 600 to 900 nm relative to NADH peak at 470 nm (=1): Lung” value [1]?
Answer: Its value is 0.30.

Question: What about the “excited fluorescence at 600 to 900 nm relative to NADH peak at 470 nm (=1): Serum” value [1] of the same molecule?
Answer: Its value is 0.31.

Question: Which results are given for `CCC1=C(C)c2cc3[nH]c(cc4nc(c5c6[nH]c(cc1n2)c(C)c6C(=O)C5C(=O)OCCOC(=O)C1C(=O)c2c(C)c5cc6nc(cc7[nH]c(cc8nc(c1c2[nH]5)C(CCC(=O)O)C8C)c(C)c7C(C)I)C(C)=C6CC)C(CCC(=O)O)C4C)c(C)c3C(C)I` (stereo not shown) [I2 PPB Dimer, Bis[2-desethenyl-2-(1-iodoethyl)pheophobide]ethylene glycol diester]?
Answer: excited fluorescence at 600 to 900 nm relative to NADH peak at 470 nm (=1): Cancer [1]: 0.82; excited fluorescence at 600 to 900 nm relative to NADH peak at 470 nm (=1): Kidney [1]: 0.07; excited fluorescence at 600 to 900 nm relative to NADH peak at 470 nm (=1): Liver [1]: 0.31; excited fluorescence at 600 to 900 nm relative to NADH peak at 470 nm (=1): Lung [1]: 0.20; excited fluorescence at 600 to 900 nm relative to NADH peak at 470 nm (=1): Serum [1]: 1.58

Question: What does the source list for `O=C([O-])CC(O)(CC(=O)[O-])C(=O)[O-].[67Ga+3]` [Gallium (^67 Ga) citrate, gallium (^67 Ga) citrate]?
Answer: Inflammation to tissue concentration ratio: Blood [2]: 21.61 ± 6.47; Inflammation to tissue concentration ratio: Heart [2]: 7.49 ± 3.37; Inflammation to tissue concentration ratio: Kidney [2]: 5.04 ± 6.35; Inflammation to tissue concentration ratio: Liver [2]: 0.69 ± 0.17; Inflammation to tissue concentration ratio: Lung [2]: 5.41 ± 0.71; Inflammation to tissue concentration ratio: Muscle [2]: 12.81 ± 4.61; Inflammation to tissue concentration ratio: Spleen [2]: 0.64 ± 0.11; Tumor to tissue concentration ratio: Blood (tumor): 9.89; Tumor to tissue concentration ratio: Heart (tumor): 1.73; Tumor to tissue concentration ratio: Kidney (tumor): 0.20; Tumor to tissue concentration ratio: Liver (tumor): 0.18; Tumor to tissue concentration ratio: Lung (tumor): 1.26; Tumor to tissue concentration ratio: Muscle (tumor): 14.20; Tumor to tissue concentration ratio: Spleen (tumor): 0.39; Inflammation to tissue concentration ratio: Blood [3]: 17.55; Inflammation to tissue concentration ratio: Heart [3]: 3.10; Inflammation to tissue concentration ratio: Kidney [3]: 0.36; Inflammation to tissue concentration ratio: Liver [3]: 0.33; Inflammation to tissue concentration ratio: Lung [3]: 2.23; Inflammation to tissue concentration ratio: Muscle [3]: 25.15; Inflammation to tissue concentration ratio: Spleen [3]: 0.68

Question: What does the source list for `C=Cc1c(C)c2cc3nc(c4c5[nH]c(cc6nc(cc1[nH]2)C(C)=C6CC)c(C)c5C(=O)C4C(=O)OCCOC(=O)CN(CCN(CCN(CC(=O)O)CC(=O)O)CC(=O)O)CC(=O)O)C(CCC(=O)OC)C3C` (stereo not shown) [DTPA--10EG PPB--Me, Ethylene glycol monodiethylenetriaminetetraacetic acid-acetate mono-10b-methylpheophorbate]?
Answer: excited fluorescence at 600 to 900 nm relative to NADH peak at 470 nm (=1): Cancer [1]: 2.73; excited fluorescence at 600 to 900 nm relative to NADH peak at 470 nm (=1): Kidney [1]: 0.37; excited fluorescence at 600 to 900 nm relative to NADH peak at 470 nm (=1): Liver [1]: 0.69; excited fluorescence at 600 to 900 nm relative to NADH peak at 470 nm (=1): Lung [1]: 0.47; excited fluorescence at 600 to 900 nm relative to NADH peak at 470 nm (=1): Serum [1]: 0.53
